From patent US20250120967A1, “TYROSINE KINASES INHIBITORS AND USES THEREOF” (GREAT NOVEL THERAPEUTICS BIOTECH & MEDICALS CORPORATION, priority 2023, published 2025) come the findings set out here.

For one assay, the target named is CSF1R (FMS) (Homo sapiens, UniProt P07333). Briefly: Tyrosine kinase inhibition assay. The assay is classed as biochemical. To be noted: for IC50: read-out: IC50 of compound; for inhibition at 1 µM: single concentration 1.0 μM, read-out: percent inhibition. The method, then:
(§1) Tyrosine kinase inhibition assays were performed at ThermoFisher Life Technologies (Madison, WI, USA) using standard protocols (SelectScreen Biochemical Profiling Service, Thermo Fisher Scientific). ATP concentrations used were at the apparent Km. Test compounds were screened in 1% dimethylsulffoxide (DMSO) (final concentration) in the well. For 10-point titrations, 3-fold serial dilutions were conducted from the starting concentration of […]. All Peptide/Kinase Mixtures were diluted to a 2× working concentration in the appropriate Kinase Buffer. All ATP Solutions were diluted to a 4× working concentration in Kinase Buffer (50 mM HEPES pH 7.5, 0.01% BRIJ-35, 10 mM MgCl2, 1 mM EGTA). The apparent ATP Km was previously determined using a Z′-LYTE assay. The Development Reagent was diluted in Development Buffer.
(§2) The inhibition activities of compounds were determined in biochemical assays using single concentration (1.0 μM) measurements. The results were provided as percent inhibition values. […] 99 different tyrosine kinases were used.

Another assay addresses T1, FLT3 (Homo sapiens, UniProt P36888).
T1 sequence (P36888 27-993): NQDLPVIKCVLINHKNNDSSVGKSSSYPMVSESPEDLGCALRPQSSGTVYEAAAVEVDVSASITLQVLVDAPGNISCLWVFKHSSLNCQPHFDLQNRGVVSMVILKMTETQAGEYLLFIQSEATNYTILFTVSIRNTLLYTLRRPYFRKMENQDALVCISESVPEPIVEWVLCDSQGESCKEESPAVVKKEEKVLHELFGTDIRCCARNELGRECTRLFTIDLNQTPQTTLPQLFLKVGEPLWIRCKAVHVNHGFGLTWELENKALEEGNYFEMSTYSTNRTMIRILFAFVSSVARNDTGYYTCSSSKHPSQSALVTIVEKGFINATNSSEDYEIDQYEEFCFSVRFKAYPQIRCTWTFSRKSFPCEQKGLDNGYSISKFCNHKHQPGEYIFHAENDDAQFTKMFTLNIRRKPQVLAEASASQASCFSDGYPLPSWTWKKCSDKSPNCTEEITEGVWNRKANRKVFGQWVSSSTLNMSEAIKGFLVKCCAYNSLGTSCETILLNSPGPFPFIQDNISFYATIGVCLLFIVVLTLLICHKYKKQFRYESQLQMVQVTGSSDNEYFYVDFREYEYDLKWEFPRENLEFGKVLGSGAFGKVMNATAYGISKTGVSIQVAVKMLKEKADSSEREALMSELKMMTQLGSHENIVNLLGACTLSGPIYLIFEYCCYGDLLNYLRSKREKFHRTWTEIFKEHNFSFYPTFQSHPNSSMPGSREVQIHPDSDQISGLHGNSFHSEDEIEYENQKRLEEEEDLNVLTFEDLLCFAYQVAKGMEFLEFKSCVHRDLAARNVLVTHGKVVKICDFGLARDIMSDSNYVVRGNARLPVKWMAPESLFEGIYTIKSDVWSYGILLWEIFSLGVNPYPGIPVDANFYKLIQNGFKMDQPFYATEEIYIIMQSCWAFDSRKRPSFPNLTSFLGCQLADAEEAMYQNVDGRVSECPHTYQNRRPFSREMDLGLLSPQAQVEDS
Briefly: Tyrosine kinase inhibition assay. The assay is classed as biochemical. Particulars: for inhibition at 1 µM: single concentration 1.0 μM, read-out: percent inhibition; for IC50: read-out: IC50 of compound. The method, then:
as §1, §2

The target in another assay is MST1R (RON) (Homo sapiens, UniProt Q04912). Briefly: Tyrosine kinase inhibition assay. To be noted: for inhibition at 1 µM: single concentration 1.0 μM, read-out: percent inhibition; for IC50: read-out: IC50 of compound. It is filed as biochemical. The method, then: as §1, §2
The target in a further assay is TEK (Tie2) (Homo sapiens, UniProt Q02763). Briefly: Tyrosine kinase inhibition assay. It is filed as biochemical. Particulars: for inhibition at 1 µM: single concentration 1.0 μM, read-out: percent inhibition; for IC50: read-out: IC50 of compound. The protocol: as §1, §2
In another assay the target is T2, TYRO3 (RSE) (Homo sapiens, UniProt Q06418).
T2 sequence (Q06418 41-890): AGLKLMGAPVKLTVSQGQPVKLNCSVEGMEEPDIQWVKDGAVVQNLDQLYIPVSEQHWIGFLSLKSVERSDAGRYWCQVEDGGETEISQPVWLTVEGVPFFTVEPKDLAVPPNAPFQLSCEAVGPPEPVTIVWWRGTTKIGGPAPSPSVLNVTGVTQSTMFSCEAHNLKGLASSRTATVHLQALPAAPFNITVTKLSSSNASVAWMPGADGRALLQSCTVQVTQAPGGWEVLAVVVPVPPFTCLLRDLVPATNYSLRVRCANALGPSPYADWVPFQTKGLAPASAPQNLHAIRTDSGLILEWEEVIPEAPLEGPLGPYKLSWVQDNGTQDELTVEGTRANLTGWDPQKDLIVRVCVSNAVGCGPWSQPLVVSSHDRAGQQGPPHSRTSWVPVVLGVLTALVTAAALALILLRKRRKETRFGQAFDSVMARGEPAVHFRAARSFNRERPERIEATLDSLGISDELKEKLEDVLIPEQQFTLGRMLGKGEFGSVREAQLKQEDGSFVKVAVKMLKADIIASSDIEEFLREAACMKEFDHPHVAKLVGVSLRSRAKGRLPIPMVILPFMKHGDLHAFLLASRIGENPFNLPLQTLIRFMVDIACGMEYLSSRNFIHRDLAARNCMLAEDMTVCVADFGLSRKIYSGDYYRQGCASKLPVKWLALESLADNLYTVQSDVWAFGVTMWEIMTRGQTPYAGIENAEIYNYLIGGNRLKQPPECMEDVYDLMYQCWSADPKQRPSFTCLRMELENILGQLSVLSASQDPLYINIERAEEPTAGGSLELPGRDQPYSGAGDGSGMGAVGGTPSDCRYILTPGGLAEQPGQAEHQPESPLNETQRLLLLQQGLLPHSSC
Briefly: Tyrosine kinase inhibition assay. The assay is classed as biochemical. Particulars: for inhibition at 1 µM: single concentration 1.0 μM, read-out: percent inhibition. The method, then:
as §1, §2

A further assay has as its system CT26 tumor. Briefly: Experimental tumor model and therapies, CT26 tumor-bearing mice.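 Further: male Balb/c mice bearing CT26 grafts in the back, treated once tumors reached roughly 250–300 mm^3, tumor volume measured twice weekly, response graded by fold growth after treatment end.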
Setting [1] is: FIG. 2E, oral once daily, Cabozantinib 30 mg/kg, Cbo-02 30 mg/kg, Chidamide-K30 50 mg/kg.
[2] abbreviates: FIG. 3E, oral 12 days, Cabozantinib 30 mg/kg, Cbo-20 30 mg/kg, GNTbm-38-K30 40 mg/kg.
[3] abbreviates: FIG. 6E, Cbo-23 30 mg/kg, Cabozantinib 30 mg/kg, GNTbm-38-K30 20 mg/kg.
The mark [4] stands for this setting: FIG. 6F, Cbo-23 30 mg/kg, Cabozantinib 30 mg/kg, GNTbm-38-K30 20 mg/kg.
[5] abbreviates: TYRO3 (RSE), read-out: IC50 of compound.
Setting [6] is: FIG. 5E, Cbo-23 30 mg/kg, Regorafenib 30 mg/kg, GNTbm-38-K30 20 mg/kg in combination, 5 mg/kg alone.

Structures are written as SMILES. Where two headings read alike, the source gives them in different places.

Chain of CSF1R (FMS) (P07333 20-972): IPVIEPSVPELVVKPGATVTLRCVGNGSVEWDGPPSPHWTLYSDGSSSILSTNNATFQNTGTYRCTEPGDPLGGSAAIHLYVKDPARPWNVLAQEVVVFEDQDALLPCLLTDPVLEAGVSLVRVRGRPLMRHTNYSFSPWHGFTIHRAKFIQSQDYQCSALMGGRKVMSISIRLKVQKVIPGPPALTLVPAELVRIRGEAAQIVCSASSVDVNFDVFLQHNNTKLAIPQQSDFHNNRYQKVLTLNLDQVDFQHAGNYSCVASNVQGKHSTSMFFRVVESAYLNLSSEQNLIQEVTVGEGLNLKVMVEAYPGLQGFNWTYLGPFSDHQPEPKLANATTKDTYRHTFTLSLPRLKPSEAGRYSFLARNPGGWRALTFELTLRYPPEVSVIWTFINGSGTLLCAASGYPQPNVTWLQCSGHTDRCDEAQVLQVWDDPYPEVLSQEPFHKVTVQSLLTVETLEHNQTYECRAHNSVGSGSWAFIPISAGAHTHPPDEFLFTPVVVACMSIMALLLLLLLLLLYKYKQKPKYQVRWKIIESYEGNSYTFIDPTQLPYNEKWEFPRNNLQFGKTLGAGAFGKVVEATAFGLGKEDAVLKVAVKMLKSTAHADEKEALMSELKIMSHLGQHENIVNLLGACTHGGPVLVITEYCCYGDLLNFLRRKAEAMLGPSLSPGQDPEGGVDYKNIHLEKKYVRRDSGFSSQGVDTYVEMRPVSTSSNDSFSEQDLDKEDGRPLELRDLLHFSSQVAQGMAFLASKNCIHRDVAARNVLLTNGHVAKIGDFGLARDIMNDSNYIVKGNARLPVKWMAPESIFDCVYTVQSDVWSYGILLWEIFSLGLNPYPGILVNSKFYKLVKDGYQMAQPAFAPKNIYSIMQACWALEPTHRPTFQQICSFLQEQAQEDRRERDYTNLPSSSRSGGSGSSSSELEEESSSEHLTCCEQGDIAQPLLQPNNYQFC
Chain of TEK (Tie2) (Q02763 23-1124): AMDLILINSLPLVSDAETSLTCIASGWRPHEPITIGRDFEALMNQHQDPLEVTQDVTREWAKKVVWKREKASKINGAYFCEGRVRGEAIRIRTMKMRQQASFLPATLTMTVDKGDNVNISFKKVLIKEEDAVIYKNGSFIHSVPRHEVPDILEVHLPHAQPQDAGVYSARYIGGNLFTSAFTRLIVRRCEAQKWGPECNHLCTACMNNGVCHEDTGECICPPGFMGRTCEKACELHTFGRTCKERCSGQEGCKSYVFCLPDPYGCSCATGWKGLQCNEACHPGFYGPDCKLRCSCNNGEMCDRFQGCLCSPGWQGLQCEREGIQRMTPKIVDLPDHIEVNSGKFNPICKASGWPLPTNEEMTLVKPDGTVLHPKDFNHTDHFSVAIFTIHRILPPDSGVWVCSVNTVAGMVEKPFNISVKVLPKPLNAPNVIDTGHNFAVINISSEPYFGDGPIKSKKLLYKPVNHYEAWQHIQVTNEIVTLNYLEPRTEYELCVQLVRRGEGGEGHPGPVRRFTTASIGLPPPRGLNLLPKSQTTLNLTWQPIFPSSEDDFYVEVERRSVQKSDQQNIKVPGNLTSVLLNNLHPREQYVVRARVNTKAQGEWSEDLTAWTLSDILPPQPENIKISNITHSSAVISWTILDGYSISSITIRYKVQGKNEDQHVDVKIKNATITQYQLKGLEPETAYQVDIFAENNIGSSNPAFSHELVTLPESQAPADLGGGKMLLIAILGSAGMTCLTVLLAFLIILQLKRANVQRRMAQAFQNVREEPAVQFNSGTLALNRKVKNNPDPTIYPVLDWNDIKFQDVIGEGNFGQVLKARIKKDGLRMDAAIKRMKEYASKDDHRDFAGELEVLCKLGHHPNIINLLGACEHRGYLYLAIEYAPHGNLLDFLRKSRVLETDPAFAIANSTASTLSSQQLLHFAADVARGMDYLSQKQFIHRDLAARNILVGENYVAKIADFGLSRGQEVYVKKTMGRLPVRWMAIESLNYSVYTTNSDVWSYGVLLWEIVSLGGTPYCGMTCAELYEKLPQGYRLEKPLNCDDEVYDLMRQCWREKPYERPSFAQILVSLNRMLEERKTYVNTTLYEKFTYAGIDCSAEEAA
Chain of MST1R (RON) (Q04912 25-1400): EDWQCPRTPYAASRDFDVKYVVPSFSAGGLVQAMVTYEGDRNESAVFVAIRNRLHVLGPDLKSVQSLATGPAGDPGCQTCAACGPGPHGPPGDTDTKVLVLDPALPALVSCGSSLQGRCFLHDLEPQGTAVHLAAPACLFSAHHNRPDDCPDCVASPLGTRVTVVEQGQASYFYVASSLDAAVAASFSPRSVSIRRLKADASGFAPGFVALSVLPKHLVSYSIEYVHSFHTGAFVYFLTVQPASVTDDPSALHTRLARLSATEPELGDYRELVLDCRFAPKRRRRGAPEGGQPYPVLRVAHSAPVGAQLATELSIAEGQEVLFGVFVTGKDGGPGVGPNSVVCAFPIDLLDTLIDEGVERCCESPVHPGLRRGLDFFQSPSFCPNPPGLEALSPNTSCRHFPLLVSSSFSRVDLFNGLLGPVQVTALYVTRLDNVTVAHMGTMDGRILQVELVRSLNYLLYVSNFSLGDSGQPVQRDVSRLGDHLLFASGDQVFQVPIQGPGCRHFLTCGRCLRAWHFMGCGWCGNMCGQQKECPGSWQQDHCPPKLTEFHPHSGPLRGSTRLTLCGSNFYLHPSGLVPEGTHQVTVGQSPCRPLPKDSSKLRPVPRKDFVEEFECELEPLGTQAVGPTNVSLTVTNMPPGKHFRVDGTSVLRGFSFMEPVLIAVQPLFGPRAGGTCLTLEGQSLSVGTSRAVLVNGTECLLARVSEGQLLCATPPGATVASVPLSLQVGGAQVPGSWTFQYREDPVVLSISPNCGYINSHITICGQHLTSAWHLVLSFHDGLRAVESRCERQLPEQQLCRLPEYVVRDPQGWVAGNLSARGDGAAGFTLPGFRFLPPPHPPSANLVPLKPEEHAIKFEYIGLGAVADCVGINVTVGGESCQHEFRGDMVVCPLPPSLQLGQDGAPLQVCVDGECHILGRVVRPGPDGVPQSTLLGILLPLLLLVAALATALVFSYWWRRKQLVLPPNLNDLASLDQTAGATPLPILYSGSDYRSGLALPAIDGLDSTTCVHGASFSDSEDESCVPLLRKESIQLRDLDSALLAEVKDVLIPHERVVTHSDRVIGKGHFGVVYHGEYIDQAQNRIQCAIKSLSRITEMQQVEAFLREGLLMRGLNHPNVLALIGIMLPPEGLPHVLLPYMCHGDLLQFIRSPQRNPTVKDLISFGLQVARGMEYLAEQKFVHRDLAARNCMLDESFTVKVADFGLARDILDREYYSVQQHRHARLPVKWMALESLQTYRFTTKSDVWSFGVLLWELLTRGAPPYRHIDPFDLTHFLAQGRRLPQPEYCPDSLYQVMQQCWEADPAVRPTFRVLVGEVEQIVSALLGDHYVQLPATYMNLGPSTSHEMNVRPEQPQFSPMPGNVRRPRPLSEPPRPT
Method for CT26 tumor: LLC1 was grown at 37° C. under humidified air supplemented with CO2 in DMEM (#10-013-CM, Corning®) containing 10% heat inactivated fetal calf serum, and 1× concentration of MycoZap Antibiotics. CT26 was grown at 37° C. under humidified air supplemented with CO2 in RPMI1640 (cat. #10-040-CM, Corning®) containing 10% heat inactivated fetal calf serum, and 1× concentration of MycoZap Antibiotics. After the cancer cell culture was completed, it was implanted (1×10^6 cells/mouse) into the back of the mouse for growth.
Six- to eight-week-old male Balb/c mice (National Laboratory Animal Center, Taiwan) were used for all animal experiments. […] Tumors were allowed to grow for 10-12 days (tumor size about 250-300 mm^3) before randomization and treatment. The tumor volume of the mice was measured once every three or four days (twice/week). Animals were euthanized when tumors reached more than 3000 mm^3 in diameter. […] Relapse/recurrence was defined as when tumor growth reappeared and tumor size reached at least 5 fold in mice with CR or PR response after secondary tumor assessment. In this study, we defined Complete Response (CR, <0.5 time tumor growth in the tumor bearing mice at tumor assessment after the end of treatment); Partial Response (PR, tumor size ≥0.5 time tumor growth, but <1 time tumor growth in the tumor bearing mice at tumor assessment after the end of treatment); Stable Disease (SD, ≥1 time tumor growth, but <5 times tumor growth in the tumor bearing mice at tumor assessment after the end of treatment); and Progressive Disease (PD, ≥5 times tumor growth in the tumor bearing mice at tumor assessment after the end of treatment) for the evaluation of treatment efficacy.

Regarding `COc1cc2nccc(Oc3ccc(NC(=O)C4(C(=O)Nc5ccc(F)cc5)CC4)cc3)c2cc1OC` [Cabozantinib, reference compound], the IC50 (in general, the concentration that inhibits the measured activity by half) was 11.9 nM at CSF1R (FMS) and 9.1 nM on TYRO3 (RSE). Besides, the inhibition (usually the change of the read-out against control, counted positive when it falls) at 1 µM on CSF1R (FMS) is 88%; on FLT3, 90%; at MST1R (RON), 95%; at TEK (Tie2), 89%. Also, the ORR came out at 0% with CT26 tumor (setting [1]); 0% in the assay with CT26 tumor (setting [2]); 0% in the assay on CT26 tumor (FIG. 4D, Cabozantinib 30 mg/kg, Cbo-22 30 mg/kg, GNTbm-38-K30 40 mg/kg); 44% in the assay on CT26 tumor (setting [3]). Besides, the figures for the “CR (number of mice)” value with CT26 tumor (setting [2]) and in the assay with CT26 tumor (setting [3]) were 0 and 3, respectively. The “PD (number of mice)” value was 5 in the assay on CT26 tumor (setting [2]) and 2 in the assay on CT26 tumor (setting [3]). The “PR (number of mice)” value is on record as 0 in the assay with CT26 tumor (setting [2]) and 1 in the assay on CT26 tumor (setting [3]). For the same molecule, the “Survival Rate” value with CT26 tumor (FIG. 3F, Cabozantinib 30 mg/kg, Cbo-20 30 mg/kg, GNTbm-38-K30 40 mg/kg) was found to be 0%; in the assay on CT26 tumor (FIG. 4E, Cabozantinib 30 mg/kg, Cbo-22 30 mg/kg, GNTbm-38-K30 40 mg/kg), 0%; with CT26 tumor (setting [4]), 33%.
As for `COc1cc2nccc(Oc3ccc(NC(=O)C4(NC(=O)c5ccc(F)cc5)CC4)cc3F)c2cc1OC` [Cbo-02, N-(1-((4-((6,7-diMethoxyquinolin-4-yl)oxy)-3-fluorophenyl)carbamoyl)cyclopropyl)-4-fluorobenzamide], the inhibition at 1 µM worked out at 83% at CSF1R (FMS); 56% at FLT3; 96% at MST1R (RON); 77% on TEK (Tie2); 58% on TYRO3 (RSE) (TYRO3 (RSE)). The ORR in the assay with CT26 tumor (setting [1]) is 10%.
On to `COc1cc2nccc(Oc3ccc(NC(=O)C4(NC(=O)c5ccc(F)cc5)CC4)cc3F)c2cc1Oc1ccc(N)cc1F` [Cbo-10], for which the inhibition at 1 µM on CSF1R (FMS) was 96%; on FLT3 it was 70%; on MST1R (RON) it was 100%; on TEK (Tie2), 85%; on TYRO3 (RSE) (TYRO3 (RSE)) it was 87%.
Regarding `COc1cc2nccc(Oc3ccc(NC(=O)C4(NC(=O)c5ccc(F)cc5)CC4)cc3F)c2cc1Oc1c(F)cc(N)cc1F` [Cbo-14], the inhibition at 1 µM was 93% at CSF1R (FMS); 81% on FLT3; 100% on MST1R (RON); 90% on TEK (Tie2); 89% at TYRO3 (RSE) (TYRO3 (RSE)).
On to `COc1cc2nccc(Oc3ccc(NC(=O)C4(C(=O)Nc5ccc(F)cc5)CC4)cc3F)c2cc1Oc1ccc(N)cc1F` [Cbo-23], for which the 50% inhibitory concentration (IC50) on CSF1R (FMS) came to 40.2 nM; at FLT3, 24.8 nM; at MST1R (RON), 51.5 nM; on TEK (Tie2), 63.1 nM; on TYRO3 (RSE) (setting [5]), 12.5 nM. The inhibition at 1 µM on CSF1R (FMS) is 99%; on FLT3, 99%; at MST1R (RON), 101%; on TEK (Tie2), 95%; at TYRO3 (RSE) (TYRO3 (RSE)) it was 100%. In addition, the results for the “CR (number of mice)” value with CT26 tumor (setting [6]) and in the assay on CT26 tumor (setting [3]) were 2 and 3, respectively. The results for the ORR in the assay with CT26 tumor (setting [6]) and with CT26 tumor (setting [3]) were 22% and 30%, respectively. The “PD (number of mice)” value in the assay on CT26 tumor (setting [6]) and in the assay on CT26 tumor (setting [3]) was 7 in each case. Further, the “PR (number of mice)” value with CT26 tumor (setting [6]) and in the assay with CT26 tumor (setting [3]) was 0 each time. The “Survival Rate” value in the assay on CT26 tumor (FIG. 5F, Cbo-23 30 mg/kg, Regorafenib 30 mg/kg, GNTbm-38-K30 20 mg/kg in combination, 5 mg/kg alone) is listed as 11%; in the assay on CT26 tumor (setting [4]), 20%. In addition, the recurrence rate with CT26 tumor (FIG. 5G, day 60, Cbo-23 30 mg/kg, Regorafenib 30 mg/kg, GNTbm-38-K30 20 mg/kg in combination, 5 mg/kg alone) came to 50%.
For the molecule `CNC(=O)c1cc2c(Oc3ccc(NC(=O)C4(C(=O)Nc5ccc(F)cc5)CC4)cc3)ccnc2cc1OC` [Zanzalintinib, reference compound], the IC50 came to 16.3 nM on CSF1R (FMS); 5.43 nM at FLT3; 135 nM on MST1R (RON); 150 nM at TEK (Tie2); 9.49 nM at TYRO3 (RSE) (setting [5]).
